Measured values as given in patent publication US6710090B2, “Inhibitory or blocking agents of molecular generating and/or inducing functions” (priority 1994, dated 2004).
Where two headings read alike, the source gives them in different places.

Assays:
[1] = system: methitilin resistance staphylococcus aureus, MRSA (stock no. SCK18); assay type: cell-based; conditions: for colony formation unit (CFU): 24-hour incubation at 37° C., initial 10^8, control 10^10
spermatozoa = assay: Inhibitory effect on flagellum motility of spermatozoa; assay type: cell-based, japanese bull
Description: In order to investigate an effect of Yoshixol on a flagellum motility of spermatozoa, the spermatozoa (seed japanese bull ID: Sinmorihide<registration No.Zen-Wa-Kuro1114, lot No.84Y28>) which has been conserved in the liquid nitrogen was thawing at 35° C. After thawing, 1 ml of semen was transferred to Petori-schale (grainer lab. GmHB) and, flagellum motility was observed by a phase contrast microscopy (IMT-2, Olympus Co.) and was recorded by a video film via a collar video camera (CCD-IRIS, Sony Co.) so that wave cycles and speed of the flagellum were analyzed by an original software of dynamic state analyzer. […] However, though a flagellum movement was completely stopped, the rotation of the head which occurs at the centriole (near junction between head and tail) was found during a few 10 seconds. And, a speed of this rotation gradually was decelerated with progress of a time. […] Moreover, from the knowledge that these movements of cells are involved in microfilaments and microtubles which is constricted from the proteins assembly, a morphological change of this spermatozoa due to treatment with Yoshixol was investigated by transmission type (JEM1200, EXII, JEOL, Ltd.) and scanning type (JSM-6000F, JEOL, Ltd.) electron microscopy. The outside of normal flagellum with regular basic structure of 9+2 is enclosed with a cell membrane and, there was the axial filament which structure is related to a movement is observed inside. The axial filament has […] (centrum pair) that exist mainly on the center and nine double tubles that exist in a periphery (circumscription canaliculus). […] But, though morphological aspect as a whole of spermatozoa was not altered by the treatment with Yoshixol, many particles with a size of 10-30 nm on the surface were observed likely to be blowed out, when the surface structure of flagellum was investigated by a magnification. And also, ring formation likely to a doughnut in which region is contributed to the movement was not found and, adhesion of small particles were noticeable (referred FIG. 28). […]

[2] = system: synthesized dimers SEQ ID NO: 1 and SEQ ID NO: 2; assay: Molecular weight of new synthesized dimers with seven base pair, electrophoresis; assay type: biochemical; conditions: 2 μl dimer solution with 2 μl of Yoshixol, 20% gel electrophoresis
Description: DNA or RNA synthesis device (392-25 type, Perkin-Elmer Co.) was used and 7 base alignment (CTTCGGA) and (CTTCGGG) new synthesis dimer (SEQ ID NO: 1) (5′>CTTCGGACTTCGGA<3′) and (SEQ ID NO: 2) (5′>CTTCGGGCTTCGGG<3′) were synthesized. Then, an effect of Yoshixol on a change in molecular weight of the dimer was investigated. This pellet was dissolved on 50 μl of tris EDTA, and OD260 was measurement by 100 times attenuation so that concentration was turned into equality (5 ng/μl) by tris EDTA and distilled water. And, 4 μl of an adjusted synthesis dimer was labeled at 5′-terminal end of the dimer with 4 μl of ATP which was labeled by P32. In addition, after processing the dimer with 1 μl of polynucleokinase (TaKaRa, Tokyo) for 30 minutes by 37° C., the solution was heated at 70° C. for 5 minutes. Afterward, 65 μl of tris EDTA, 1 μl of glycogen and 190 μl of chilled ethanol were added and were mixed. And, it was centrifuged over 10 minute by 16,000 cpm. After taking the supernatant out, the pellet was made dry. Again, it was dissolved by 50 μl of tris EDTA and, 1 μl of the solution with radioactivity was mixed with urea (15 g), acrylamide (5.7 g), bisacrylamide (0.3 g), tris boric acid EDTA (3 ml), 10% ammoniumpersulfate (0.1 ml) and N, N, N, N-tetramethyldiamine (15 μl) to distilled water, so that the volume was made to 30 ml in total. […]

SMILES: C=C1CC(C)(C)C=CC1=O [Yoshixol, 4,4-dimethyl-6-methylene-2-cyclohexen-1-one]
- colony formation unit (CFU) ([1]; 0.25 μl per 1 ml of culture medium): 10^4 CFU
- colony formation unit (CFU) ([1]; 2 μl per 1 ml of culture medium): 10^2 CFU
- colony formation unit (CFU) ([1]; 10 μl per 1 ml of culture medium): zero
- proliferation with evaporating component of Yoshixol ([1]; 50 μl in the whole space of the schale, indirect contact, 24 hours, 37° C.): did not occur
- histological aspect of cell death, scanning electron microscopy ([1]; after Yoshixol): separated to an individual bacterial cell
- velocity of spermatozoa (spermatozoa; 1 μl of Yoshixol added to 1 ml semen, normal 0.3-1.5 mm per second): zero
- flagellum movement (spermatozoa; after 1 μl of Yoshixol was added to 1 ml semen): immediately inhibited
- morphological aspect as a whole of spermatozoa (spermatozoa; electron microscopy after treatment with Yoshixol): not altered
- change in molecular weight of the synthesized dimers versus without treatment [2]: did not differ
